Active and inactive are the calls of the source. No cut-off for these calls is given here.
What was measured:
[1] = tested on: Canavalia ensiformis; experiment: Inhibition of jack bean alpha-mannosidase assessed as p-nitrophenylglycoside substrate hydrolysis at 1 mM
[2] = tested on: Prunus dulcis; experiment: Inhibition of almond alpha-mannosidase assessed as p-nitrophenylglycoside substrate hydrolysis at 1 mM
[3] = target: T1, Alpha-mannosidase 2 (Homo sapiens, UniProt Q16706); experiment: Inhibition of human golgi alpha mannosidase 2
T1 sequence (Q16706 whole entry): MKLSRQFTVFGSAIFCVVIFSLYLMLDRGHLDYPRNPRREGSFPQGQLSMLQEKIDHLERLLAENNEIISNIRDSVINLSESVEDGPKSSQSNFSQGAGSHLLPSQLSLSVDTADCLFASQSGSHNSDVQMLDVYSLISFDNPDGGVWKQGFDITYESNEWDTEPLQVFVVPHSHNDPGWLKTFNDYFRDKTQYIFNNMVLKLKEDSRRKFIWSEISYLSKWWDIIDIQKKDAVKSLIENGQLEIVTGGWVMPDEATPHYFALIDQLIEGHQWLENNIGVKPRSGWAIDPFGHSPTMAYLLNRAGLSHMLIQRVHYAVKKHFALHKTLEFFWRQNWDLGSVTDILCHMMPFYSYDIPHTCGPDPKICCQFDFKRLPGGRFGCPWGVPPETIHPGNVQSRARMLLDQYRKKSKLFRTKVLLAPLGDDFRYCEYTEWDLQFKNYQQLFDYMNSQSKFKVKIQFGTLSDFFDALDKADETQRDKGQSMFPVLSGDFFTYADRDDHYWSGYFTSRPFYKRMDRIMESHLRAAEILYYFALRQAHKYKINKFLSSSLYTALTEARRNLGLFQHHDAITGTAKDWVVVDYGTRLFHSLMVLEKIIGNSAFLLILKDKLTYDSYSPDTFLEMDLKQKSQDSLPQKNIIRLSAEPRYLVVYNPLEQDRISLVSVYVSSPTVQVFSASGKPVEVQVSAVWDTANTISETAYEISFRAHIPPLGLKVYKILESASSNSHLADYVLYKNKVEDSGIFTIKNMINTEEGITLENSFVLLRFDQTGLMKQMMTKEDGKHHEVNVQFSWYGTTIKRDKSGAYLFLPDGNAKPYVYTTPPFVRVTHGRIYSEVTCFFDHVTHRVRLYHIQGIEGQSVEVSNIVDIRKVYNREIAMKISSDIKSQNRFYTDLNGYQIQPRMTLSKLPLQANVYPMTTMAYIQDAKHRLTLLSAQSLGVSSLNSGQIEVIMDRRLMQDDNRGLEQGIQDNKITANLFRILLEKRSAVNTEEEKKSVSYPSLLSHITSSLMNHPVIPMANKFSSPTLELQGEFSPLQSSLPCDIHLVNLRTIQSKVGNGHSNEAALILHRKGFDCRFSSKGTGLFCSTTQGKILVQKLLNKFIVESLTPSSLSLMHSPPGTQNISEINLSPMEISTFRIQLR

[4] = target: T2, Endoplasmic reticulum mannosyl-oligosaccharide 1,2-alpha-mannosidase (Homo sapiens, UniProt Q9UKM7); experiment: Inhibition of human ER alpha mannosidase 1
T2 sequence (Q9UKM7 whole entry): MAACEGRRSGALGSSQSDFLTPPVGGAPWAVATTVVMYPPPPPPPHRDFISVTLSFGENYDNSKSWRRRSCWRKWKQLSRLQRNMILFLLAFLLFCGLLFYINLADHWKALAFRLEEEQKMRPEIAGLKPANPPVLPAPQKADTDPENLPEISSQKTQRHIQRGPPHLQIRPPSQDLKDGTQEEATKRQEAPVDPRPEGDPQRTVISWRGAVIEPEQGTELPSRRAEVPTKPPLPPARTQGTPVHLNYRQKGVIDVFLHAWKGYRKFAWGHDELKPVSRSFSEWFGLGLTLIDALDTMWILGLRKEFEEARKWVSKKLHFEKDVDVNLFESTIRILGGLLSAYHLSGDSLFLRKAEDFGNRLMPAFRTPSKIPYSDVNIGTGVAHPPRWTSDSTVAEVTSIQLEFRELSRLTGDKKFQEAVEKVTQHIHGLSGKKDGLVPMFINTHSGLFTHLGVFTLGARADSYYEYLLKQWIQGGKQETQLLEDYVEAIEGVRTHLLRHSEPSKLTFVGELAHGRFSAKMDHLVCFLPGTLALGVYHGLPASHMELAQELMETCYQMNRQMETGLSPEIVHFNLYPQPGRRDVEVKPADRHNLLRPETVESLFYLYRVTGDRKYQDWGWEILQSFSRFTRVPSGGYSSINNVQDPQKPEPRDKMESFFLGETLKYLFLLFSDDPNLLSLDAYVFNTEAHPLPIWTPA

SMILES | inhibition [1] | inhibition [2] | Ki [3] [µM] | Ki [4] [µM]
O[C@H]1[C@@H](O)CN[C@@H]1CNCc1ccco1 | 49% | 29% | 292 | 136
O[C@H]1[C@@H](O)CN[C@@H]1CNCc1cccs1 | 89% | 68% | 233 | 77.7
CC(NC[C@H]1NC[C@H](O)[C@@H]1O)c1ccccc1 (stereo partly specified) | 66% | 48% | 82.3 | 28.1
C[C@H](O)NC[C@H]1NC[C@H](O)[C@@H]1O | 66% | 45% | 683 | 488
OC[C@H]1NC[C@H](O)[C@@H]1O [IMINORIBITOL] | 54% | 37% | 1430 | 1.26
CC(=O)N(CNC[C@H]1NC[C@H](O)[C@@H]1O)Cc1ccccc1 | inactive | inactive | 64.9 | 44.8
OCC(O)[C@H]1NC[C@H](O)[C@@H]1O (stereo partly specified) | inactive | inactive | 229 | 169
OC(O)C[C@H]1NC[C@H](O)[C@@H]1O | 81% |  | 438 | 287
OC[C@@H](NC[C@H]1NC[C@H](O)[C@@H]1O)c1ccccc1 | 92% | 55% | 29.9 | 12
O[C@H]1[C@@H](O)CN[C@@H]1CNC1CCCC1 | 60% | 53% | 333 | 66.9
NC[C@H]1NC[C@H](O)[C@@H]1O | 81% | 51% | 1310 | 1.59
O[C@H]1[C@@H](O)CN[C@@H]1CCNc1ccccc1 | 33% | inactive | 123 | 74.3
O[C@H]1[C@@H](O)CN[C@@H]1CNCn1ccnc1 | 55% | 59% | 568 | 326
O[C@H]1[C@@H](O)CN[C@@H]1CNCC1CCN(Cc2ccccc2)CC1 | 55% | 59% | 43.2 | 13.1
COC[C@H](NC[C@H]1NC[C@H](O)[C@@H]1O)c1ccccc1 | 77% | 63% | 36 | 12.1
O[C@@H]1CNC[C@@H]1O | 70% | 40% | 531 | 3.24
O[C@H]1[C@@H](O)CN[C@@H]1CNCc1ccccc1 | 92% |  | 152 | 35
C[C@@H](O)NC[C@H]1NC[C@H](O)[C@@H]1O | 75% | 39% | 450 | 918
CC(NC[C@H]1NC[C@H](O)[C@@H]1O)C(O)(c1ccccc1)c1ccccc1 (stereo partly specified) | inactive | inactive | 80.8 | 27.1
O[C@H]1[C@@H](O)CN[C@@H]1CN[C@@H](COCc1ccccc1)c1ccccc1 | 92% | 75% | 68.3 | 0.23

The next compounds have a lower Ki [3] than those just listed; values first:

inhibition [1] | inhibition [2] | Ki [3] [µM] | Ki [4] [µM] | SMILES
 | 93% | 26.9 | 16.8 | OC[C@H](NC[C@H]1NC[C@H](O)[C@@H]1O)c1ccccc1
84% | 50% | 25.9 | 2.62 | O[C@H]1[C@@H](O)CN[C@@H]1CN[C@@H](c1ccccc1)[C@H](O)c1ccccc1
92% |  | 15.5 | 0.31 | O[C@H]1[C@@H](O)CN[C@@H]1CN[C@@H](COCOc1ccc(Br)cc1)c1ccccc1
79% |  | 12.8 | 0.31 | O[C@H]1[C@@H](O)CN[C@@H]1CN[C@@H](COCOc1cccc(Br)c1)c1ccccc1
98% | 96% | 11.8 | 24.6 | OC[C@H](NC[C@H]1N[C@H](CO)[C@H](O)[C@@H]1O)c1ccccc1
83% |  | 11.3 | 0.91 | O[C@H]1[C@@H](O)CN[C@@H]1CN[C@@H](COCOc1ccccc1F)c1ccccc1
99% |  | 9.14 | 0.76 | O[C@H]1[C@@H](O)CN[C@@H]1CN[C@@H](COCc1cccc(F)c1)c1ccccc1
88% | 55% | 7.77 | 0.79 | O[C@H]1[C@@H](O)CN[C@@H]1CN[C@H](c1ccccc1)[C@@H](O)c1ccccc1
92% |  | 6.47 | 0.44 | O[C@H]1[C@@H](O)CN[C@@H]1CN[C@@H](COCOc1ccc(F)cc1)c1ccccc1
89% |  | 4.35 | 0.16 | O=C(NC[C@H](NC[C@H]1NC[C@H](O)[C@@H]1O)c1ccccc1)c1ccccc1Br

Source: ChEMBL document CHEMBL2203079, “Virtual screening and QSAR study of some pyrrolidine derivatives as α-mannosidase inhibitors for binding feature analysis” (Bioorg Med Chem, 2012)
